Measured values from patent US20040204368A1, “Oxadiazole derivative compounds and drugs containing these compounds as the active ingredient” (priority 2001, published 2004).

Biological target: T1, Cathepsin K (Homo sapiens, UniProt P43235)
T1 sequence (P43235 115-329): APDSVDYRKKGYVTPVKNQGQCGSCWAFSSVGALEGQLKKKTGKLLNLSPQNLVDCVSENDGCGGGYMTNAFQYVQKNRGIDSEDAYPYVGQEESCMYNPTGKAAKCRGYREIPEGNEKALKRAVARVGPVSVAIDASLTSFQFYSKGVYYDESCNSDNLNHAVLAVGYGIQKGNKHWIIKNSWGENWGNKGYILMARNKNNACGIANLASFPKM
Test: Measurement of cathepsin K inhibitory activity
Format: biochemical
Details: Dixon plot, pH 5.5, 37° C.
Method: (i) Measurement of Cathepsin K Inhibitory Activity
65 μL of Cathepsin K enzyme reaction buffer (50 mmol/L of 2-(N-morpholino)ethanesulfonate, 2 mmol/L of ethylene diamine tetraacetate (EDTA) and 4 mmol/L of dithio threitol (DTT) were mixed to adjust to pH 5.5), 5 μL of cysteine protease inhibitor solution of several concentrations, 20 μL of synthesized substrate (t-butyloxycarbonyl-L-alanyl-glycyl-L-prolyl-L-arginine-4-methyl-chromanyl-7-amide) solution of several concentrations and 10 μL of cathepsin K enzyme solution were mixed and the increase of fluorescence intensity when reacted at 37° C. was measured (Ex (excitation wavelength)=355 nm, Em (fluorescence wavelength)=460 nm). As to the substrate and the compound of the present invention, enzyme reactions were carried out in combination of several appropriate concentrations and Dixon plotting was prepared, to define the absolute value of X-coordinate of the intersection point of the graph as Ki value.

- Ki: 48 nM
Compound: CC(C)CC(NC(=O)C1CCCCCC1)C(=O)c1nnc(SCCN(C)C)o1 (stereo not shown) [example 1]
